Data as given in patent publication US20160264593A1 (priority 2013, published 2016).
Several values for one entry are separate records, joined by “and”; a condition that tells them apart may be missing. Equal entries are not always repeated. Entries after “also recorded” stand apart in the source; their conditions may differ. Where two headings read alike, the source gives them in different places.

Tests used:
[1] = system: PP2A; assay: PP2A activity in mouse livers after IP dosing (PP2A immunoprecipitation phosphatase assay, malachite green); type: in vivo, Balb/c mice
Method: (§1) Coomassie (Bradford) Protein Assay Kit (Pierce); PP2A Immunoprecipitation Phosphatase Assay Kit (Millipore); Lysate preparation for low endogenous phosphate: 20 mM imidazole-HCl, 2 mM EDTA, 2 mM EGTA, 1 mM PMSF, 1 mM benzamidine, 10 ug/ml each of aprotinin, leupeptin, antipain, soybean trypsin inhibitor; Normal Mouse IgG (Millipore); Okadaic acid (OA) (Tocris); DMSO (Sigma).
(§2) • Species: Mus Musculus • Strain: Balb/c mice • Age: 6-8 weeks • Sex: female • Body weight: 18-22 g • Vendor: Shanghai Laboratory Animal Center, Shanghai, China; • Number of animals: 66 Balb/c mice plus spare
(§3) The mice were kept in laminar flow rooms at constant temperature and humidity with 4 animals in each cage. • Temperature: 20-25 • Humidity: 40-70%. • Light cycle: 12 hours light and 12 hours dark. • Cages: Made of polycarbonate. The size is 29 cm×17.5 cm×12 cm (L×w×H). The bedding material is wood debris, which is changed once per week. • Diet: Animals had free access to irradiation sterilized dry granule food during the entire study period. • Water: Animals had free access to sterile drinking water. • Cage identification: the identification labels for each cage contained the following information: number of animals, sex, strain, date arrival, treatment, study number, group number, and the starting date of the treatment. • Animal identification: Animals were marked by ear punch.
(§4) All the procedures related to animal handling, care, and the treatment in this study were performed according to guidelines approved by the Institutional Animal Care and Use Committee (IACUC) of WuXi AppTec (Shanghai), following the guidance of the Association for Assessment and Accreditation of Laboratory Animal Care (AAALAC). At the time of routine monitoring, the animals were checked and recorded for any effects of tumor growth on normal behavior such as mobility, food and water consumption (by looking only), body weight gain/loss, eye/hair matting and any other abnormal effect.
(§5) 1. Proper amount of the compounds were weighed. 2. The compounds were dissolved in 4% sterile sodium bicarbonate. 3. All of the compounds should be well dissolved and clear. 4. The compounds should be kept cold once in solution and injected within an hour. 5. The mice were administered intraperitoneally according to their body weights, 20 g mouse was treated with 0.2 ml compound solution. 6. Mice were treated with vehicle and compounds according to Table 1. 7. 3 hours after the dose, 3 mice from each group were euthanized by
(§6) CO2 exposure, and the brains and left lobe of livers were taken and snap-frozen in liquid nitrogen immediately. 6 hours after the dose, the other 3 mice from each group were euthanized by CO2 exposure, and the brains and left lobe of livers were taken and snap-frozen in liquid nitrogen immediately.
(§7) Preparation of malachite green phosphate detection solution Added […] of Solution B to each 1 mL of Solution A, kept at room temperature during use. […] of mixed solution AB is used per assay well.
(§8) Diluted 125 mL Phosphate Standard (Solution C) with 1125 mL of distilled water to make 0.1 mM working solution. The solution was used to prepare a phosphate standard curve as described in the table below.
(§9) 1. 25 μL of each phosphate standards was transferred to wells of microliter plate. 2. Added 100 μL of Malachite Green Solution AB. Mixed carefully without creating bubbles. 3. Cultured for 15 minutes at RT. 4. Measured absorbance at a wavelength between 650 nm in a microliter plate reader.
(§10) 1. Dissolved 1 mg Threonine Phosphopeptide (Catalog #12-219) in 1.10 mL of distilled water to prepare a 1 mM solution. 2. Aliquot peptide solution and stored at ˜20° C. as necessary.
(§11) 1. Mouse brain or liver was homogenized using lysis buffer (25 g/L), centrifuged at 12000 g for 10 minutes at […], and the supernatants were collected. 2. The protein was quantitated, and 240 μg of mouse brain or liver lysate was taken to assay phosphatase activity. 3. […]

[2] = system: lung cancer (A549) cells; assay: WST cell viability assay, A549; type: cell-based; details: Homo sapiens, A549, read-out: IC50 A549
[3] = system: glioblastoma (U-87) cells; assay: WST cell viability assay, U-87 MG; type: cell-based; details: Homo sapiens, U-87 MG
[4] = system: PP2A; assay: PP2A activity in mouse brains after IP dosing (PP2A immunoprecipitation phosphatase assay, malachite green); type: in vivo, Balb/c mice; details: for Average Conc. (group of 3 mice) / Average Relative Activity (group, vehicle = 100) / Conc. (phosphate, single reading, per mouse) / Mean Conc. (per mouse) / Mean Conc. less IgG blank (per mouse) / Relative Conc. (per mouse, to vehicle) / Relative PP2A Activity (per mouse, vehicle = 100): brain; for activity of PP2A in brains (statement): high dose IP
Method: as §1, §2, §3, §4, §5, §6, §7, §8, §9, §10, §11

[5] = system: breast cancer (2LMP) cells; assay: WST cell viability assay, 2LMP
Description: IC50 values were obtained for cytotoxicity against breast cancer (2LMP), glioblastoma (U-87) and lung cancer (A549) cells (See Table 5 and FIGS. 3-5).

[6] = IP, dose and time not specified
[7] = low dose IP (mpk: 100 0.75, 113 1.1, 151 0.8, 153 0.85, 157 1.0), 3 h, liver
[8] = low dose IP (mpk: 100 0.75, 113 1.1, 151 0.8, 153 0.85, 157 1.0), 6 h, liver
[9] = high dose IP (mpk: 100 1.5, 113 2.2, 151 1.6, 153 1.7, 157 2.0), 3 h
[10] = high dose IP (mpk: 100 1.5, 113 2.2, 151 1.6, 153 1.7, 157 2.0), 6 h
[11] = low dose IP (mpk: 100 0.75, 113 1.1, 151 0.8, 153 0.85, 157 1.0), 3 h
[12] = low dose IP (mpk: 100 0.75, 113 1.1, 151 0.8, 153 0.85, 157 1.0), 6 h

With `CCCOC(=O)C1C2CCC(O2)C1C(=O)N1CCN(C)CC1` (stereo not shown) [Compound 153, 3-(4-Methylpiperazine-1-carbonyl)-7-oxa-bicyclo[2,2,1]heptane-2-carboxylic acid propyl ester] the “PP2A activity in the liver of mice (statement)” value [1, 6] was “inhibited PP2A activity”, the “activity of PP2A in livers as compared with vehicle (statement)” value ([1]; high dose IP, 6 h post treatment) was “significantly inhibited” and the “Average Conc. (group of 3 mice)” value [1, 7] was 387.63. For the same molecule, the “Average Relative Activity (group, vehicle = 100)” value (from here on “Average Relative Activity”) [1, 7] was 92.3, the “Conc. (phosphate, single reading, per mouse)” value [1, 7] was 445.88 and 461.99 and 441.96 and 438.48 and 396.24 and 414.09 and the “Mean Conc. (per mouse)” value [1, 7] was 453.94 and 440.22 and 405.17. For the same molecule, the “Mean Conc. less IgG blank (per mouse)” value [1, 7] was 408.46 and 394.74 and 359.69, the “Relative Conc. (per mouse, to vehicle)” value [1, 7] was 0.97 and 0.94 and 0.86 and the “Relative PP2A Activity (per mouse, vehicle = 100)” value [1, 7] was 97.26 and 93.99 and 85.65. The “Average Conc. (group of 3 mice)” value [1, 8] was 364.7, the “Average Relative Activity” value [1, 8] was 82.05 and the IC50 [2] was greater than 100 µM. The IC50 ([3]; read-out: IC50 U-87 MG, WST-20131017 (first value of the cell)) was greater than 100 µM, the IC50 ([3]; read-out: IC50 U-87 MG, WST-20131024 (second value of the cell)) was greater than 100 µM and the “PP2A activity in the brain of mice (statement)” value [4, 6] was “inhibited PP2A activity”. For the same molecule, the “Average Conc. (group of 3 mice)” value [4, 9] was 1620.00, the “Average Relative Activity” value [4, 9] was 65.73 and the “Conc. (phosphate, single reading, per mouse)” value [4, 9] was 2278.33 and 2174.47 and 1309.82 and 1252.91 and 1475.88 and 1456.77. For the same molecule, the “Mean Conc. (per mouse)” value [4, 9] was 2226.40 and 1281.36 and 1466.33, the “Mean Conc. less IgG blank (per mouse)” value [4, 9] was 2188.37 and 1243.34 and 1428.30 and the “Relative Conc. (per mouse, to vehicle)” value [4, 9] was 1.01 and 0.57 and 0.66. For the same molecule, the “Relative PP2A Activity (per mouse, vehicle = 100)” value [4, 9] was 88.79 and 50.45 and 57.95, the “Average Conc. (group of 3 mice)” value [4, 10] was 1696.22 and the “Average Relative Activity” value [4, 10] was 61.07. The “Conc. (phosphate, single reading, per mouse)” value [4, 10] was 1822.84 and 1778.73 and 1685.64 and 1802.51 and 1690.72 and 1625.07, the “Mean Conc. (per mouse)” value [4, 10] was 1800.78 and 1744.07 and 1657.89 and the “Mean Conc. less IgG blank (per mouse)” value [4, 10] was 1762.76 and 1706.05 and 1619.87. For the same molecule, the “Relative Conc. (per mouse, to vehicle)” value [4, 10] was 0.72 and 0.70 and 0.66, the “Relative PP2A Activity (per mouse, vehicle = 100)” value [4, 10] was 63.47 and 61.43 and 58.32 and the “activity of PP2A in brains (statement)” value ([4]; 3 h) was “more effectively than compound 100”. For the same molecule, the “activity of PP2A in brains (statement)” value ([4]; 6 h) was “significantly inhibited; also recorded: more effectively than compound 100”, the “PP2A activity in brains as compared with vehicle” value ([4]; high doses IP, 6 h post treatment) was 61% and the “Average Conc. (group of 3 mice)” value [4, 11] was 2159.78. For the same molecule, the “Average Relative Activity” value [4, 11] was 87.63, the “Conc. (phosphate, single reading, per mouse)” value [4, 11] was 2670.21 and 2571.02 and 1916.94 and 1817.15 and 2140.93 and 2070.60 and the “Mean Conc. (per mouse)” value [4, 11] was 2620.61 and 1867.04 and 2105.77. For the same molecule, the “Mean Conc. less IgG blank (per mouse)” value [4, 11] was 2582.58 and 1829.02 and 2067.74, the “Relative Conc. (per mouse, to vehicle)” value [4, 11] was 1.19 and 0.84 and 0.95 and the “Relative PP2A Activity (per mouse, vehicle = 100)” value [4, 11] was 104.78 and 74.21 and 83.90. The “Average Conc. (group of 3 mice)” value [4, 12] was 2104.97, the “Average Relative Activity” value [4, 12] was 75.79 and the “Conc. (phosphate, single reading, per mouse)” value [4, 12] was 1969.99 and 2070.60 and 2070.20 and 2078.94 and 2387.89 and 2280.36. The “Mean Conc. (per mouse)” value [4, 12] was 2020.30 and 2074.57 and 2334.12, the “Mean Conc. less IgG blank (per mouse)” value [4, 12] was 1982.27 and 2036.54 and 2296.10 and the “Relative Conc. (per mouse, to vehicle)” value [4, 12] was 0.81 and 0.83 and 0.94. The “Relative PP2A Activity (per mouse, vehicle = 100)” value [4, 12] was 71.37 and 73.33 and 82.67, the “cytotoxicity against breast cancer cells (statement)” value ([5]; WST, 2LMP) was “cytotoxic” and the IC50 ([5]; read-out: IC50 2LMP, WST-20131015 (first value of the cell)) was 69.1 µM. For the same molecule, the IC50 ([5]; read-out: IC50 2LMP, WST-20131025 (second value of the cell)) was 62 µM.
